Like-named read-outs stand apart in the source and are kept apart here.
How the values were obtained:
Assay in all cases: intrinsic tryptophan fluorescence titration
Lili-Mip1 = biological target: T1, Lili-Mip1 (Diploptera punctata, UniProt Q6SVB6); type: binding
T1 construct: recombinant, codon-optimised synthetic gene, secreted from S. cerevisiae FGY217 with Ost1 or alpha-factor signal; untagged pYES2 version likely (also made with C-terminal His tag)
Text: intrinsic tryptophan fluorescence titration on Lili-Mip1

Lili-Mip2 = biological target: T2, Lili-Mip2 (Diploptera punctata, UniProt Q6SVB5); type: binding
T2 construct: recombinant, codon-optimised synthetic gene, secreted from S. cerevisiae FGY217 with Ost1 or alpha-factor signal; untagged pYES2 version likely (also made with C-terminal His tag)
T2 sequence (Q6SVB5 entry or part of it): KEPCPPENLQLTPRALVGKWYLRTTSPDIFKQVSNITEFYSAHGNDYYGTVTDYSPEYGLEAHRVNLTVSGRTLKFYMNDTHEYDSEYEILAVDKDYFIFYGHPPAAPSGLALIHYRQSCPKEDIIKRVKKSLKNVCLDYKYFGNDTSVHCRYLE
Text: intrinsic tryptophan fluorescence titration on Lili-Mip2

Lili-Mip3 = biological target: T3, Lili-Mip3; type: binding, Diploptera punctata; settings: 50 mM sodium acetate pH 4.8, 100 mM NaCl, 25°C, delipidated protein
T3 construct: recombinant, codon-optimised synthetic gene, secreted from S. cerevisiae FGY217 with Ost1 or alpha-factor signal; untagged pYES2 version likely (also made with C-terminal His tag)
Text: intrinsic tryptophan fluorescence titration on Lili-Mip3

[1] = read-out: Myristoleic acid (14:1)
[2] = read-out: Palmitoleic acid (16:1)

T1 sequence (Q6SVB6 entry or part of it): as the sequence (Q6SVB5 entry or part of it) above, with E87K, I125V, S132A, H150P, R152H, L154V counted along it

**Q.** For `CCCCCCCC/C=C\CCCCCCCC(=O)O` [Oleic acid], which Kd (Lili-Mip1; read-out: Oleic acid (18:1)) is on record?
**A.** The Kd was 930 ± 310 nM.

**Q.** What about the Kd (Lili-Mip2; read-out: Oleic acid (18:1)) of the same molecule?
**A.** Its Kd is 1710 ± 1190 nM.

**Q.** What about the Kd (Lili-Mip3; read-out: Oleic acid (18:1)) of the same molecule?
**A.** Its Kd is 240 ± 110 nM.

**Q.** How did the Kd (Lili-Mip1; read-out: Stearic acid (18:0)) turn out when `CCCCCCCCCCCCCCCCCC(=O)O` [Stearic acid] was run?
**A.** Its Kd is 1710 ± 560 nM.

**Q.** What about the Kd (Lili-Mip2; read-out: Stearic acid (18:0)) of the same molecule?
**A.** The Kd was 2320 ± 1320 nM.

**Q.** What about the Kd (Lili-Mip3; read-out: Stearic acid (18:0)) of the same molecule?
**A.** Its Kd is 1780 ± 1740 nM.

**Q.** For `CCCCCCCCCCCCCCCC(=O)O` [Palmitic acid], which Kd (Lili-Mip1; read-out: Palmitic acid (16:0)) is on record?
**A.** Its Kd is 1760 ± 880 nM.

**Q.** What about the Kd (Lili-Mip2; read-out: Palmitic acid (16:0)) of the same molecule?
**A.** The Kd was 1410 ± 880 nM.

**Q.** And the Kd (Lili-Mip3; read-out: Palmitic acid (16:0))?
**A.** The Kd was 820 ± 610 nM.

**Q.** For `CCCCC/C=C\C/C=C\CCCCCCCC(=O)O` [Linoleic acid], which Kd (Lili-Mip1; read-out: Linoleic acid (18:2)) is on record?
**A.** The Kd was 1560 ± 330 nM.

**Q.** And the Kd (Lili-Mip2; read-out: Linoleic acid (18:2))?
**A.** Its Kd is 2190 ± 1410 nM.

**Q.** What about the Kd (Lili-Mip3; read-out: Linoleic acid (18:2)) of the same molecule?
**A.** The Kd was 270 ± 80 nM.

**Q.** Which results are given for `CCCCCCCCCCCCCC(=O)O` [Myristic acid]?
**A.** Kd (Lili-Mip1; read-out: Myristic acid (14:0)): 1960 ± 830 nM; Kd (Lili-Mip3; read-out: Myristic acid (14:0)): 1600 ± 510 nM

**Q.** Which results are given for `CCCC/C=C\CCCCCCCC(=O)O` [Myristoleic acid]?
**A.** Kd (Lili-Mip1; [1]): 2060 ± 420 nM; Kd (Lili-Mip2; [1]): 2780 ± 500 nM; Kd (Lili-Mip3; [1]): 680 ± 490 nM

**Q.** What does the source list for `CCCCCC/C=C\CCCCCCCC(=O)O` [Palmitoleic acid]?
**A.** Kd (Lili-Mip1; [2]): 1540 ± 910 nM; Kd (Lili-Mip2; [2]): 2300 ± 1320 nM; Kd (Lili-Mip3; [2]): 880 ± 620 nM

Reference: PMC10310036, “Variability in phenylalanine side chain conformations facilitates broad substrate tolerance of fatty acid binding in cockroach milk proteins” (PLOS ONE, 2023)
